Experimental findings from ChEMBL document CHEMBL5518174 (Eur J Med Chem, 2024) are described below.

The subject of assay [1] is NCI-H1975. The assay is described as follows: cells. It is filed as functional, cell-based. The settings on record: Homo sapiens, NCI-H1975, 48 h.
Description: Cytotoxicity against human NCI-H1975 cells assessed as inhibition of cell growth incubated for 48 hrs by Celltiter-glo assay
Assay [2] in a line: Upregulation of acetylated H3 protein expression in human NCI-H1975 cells assessed as fold change at 0.05 uM incubated for 24 hrs by immunoblotting analysis (reference value: 1). It is filed as functional.
Assay [3] is described as follows: Upregulation of acetylated H4 protein expression in human NCI-H1975 cells assessed as fold change at 0.05 uM incubated for 24 hrs by immunoblotting analysis (reference value: 1). It is filed as functional. On the technique in general: Immunoblotting shows a protein as a band on a membrane.
Assay [4] is described as follows: Upregulation of acetylated H4 protein expression in human NCI-H1975 cells assessed as fold change at 0.1 uM incubated for 24 hrs by immunoblotting analysis (reference value: 1). It is filed as functional.
Assay [5] addresses Histone deacetylase 1 (Homo sapiens, UniProt Q13547). The assay is described as follows: Inhibition of recombinant human HDAC1 using acetylated luminogenic substrate incubated for 10 mins by ultra-glo recombinant firefly luciferase based luminescence assay.
Assay [6] concerns the target T1, Histone deacetylase 11 (Homo sapiens, UniProt Q96DB2).
T1 sequence (Q96DB2 whole entry): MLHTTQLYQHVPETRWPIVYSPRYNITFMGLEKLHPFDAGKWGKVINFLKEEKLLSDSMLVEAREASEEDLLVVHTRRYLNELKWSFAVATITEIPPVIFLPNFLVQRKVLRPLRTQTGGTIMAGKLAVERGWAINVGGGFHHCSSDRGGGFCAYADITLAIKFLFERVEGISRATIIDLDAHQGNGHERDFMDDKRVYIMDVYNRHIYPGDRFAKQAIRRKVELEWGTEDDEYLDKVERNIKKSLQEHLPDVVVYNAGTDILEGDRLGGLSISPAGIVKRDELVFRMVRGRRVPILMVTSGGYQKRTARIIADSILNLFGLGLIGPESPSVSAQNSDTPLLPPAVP
The assay is described as follows: Inhibition of recombinant human HDAC11 using acetylated luminogenic substrate incubated for 10 mins by ultra-glo recombinant firefly luciferase based luminescence assay.

Assay [7] is described as follows: Downregulation of HDAC1 protein expression in human MDA-MB-231 cells assessed as fold change at 0.05 uM incubated for 24 hrs by immunoblotting analysis (reference value: 1). It is filed as functional.
Assay [8] is described as follows: Downregulation of HDAC8 protein expression in human NCI-H1975 cells assessed as fold change at 0.05 uM incubated for 24 hrs by immunoblotting analysis (reference value: 1). It is filed as functional.
A short description of assay [9]: Effect on HDAC8 protein expression in human MDA-MB-231 cells assessed as fold change at 0.05 uM incubated for 24 hrs by immunoblotting analysis (reference value: 1). It is filed as functional.
A short description of assay [10]: Effect on HDAC5 protein expression in human MDA-MB-231 cells assessed as fold change at 0.05 uM incubated for 24 hrs by immunoblotting analysis (reference value: 1). It is filed as functional.
Assay [11] is described as follows: Downregulation of HDAC5 protein expression in human MDA-MB-231 cells assessed as fold change at 0.1 uM incubated for 24 hrs by immunoblotting analysis (reference value: 1). It is filed as functional.
Assay [12] can be described thus: Downregulation of HDAC11 protein expression in human MDA-MB-231 cells assessed as fold change at 0.05 uM incubated for 24 hrs by immunoblotting analysis (reference value: 1). It is filed as functional.

Sequence of Histone deacetylase 1 (Q13547 whole entry): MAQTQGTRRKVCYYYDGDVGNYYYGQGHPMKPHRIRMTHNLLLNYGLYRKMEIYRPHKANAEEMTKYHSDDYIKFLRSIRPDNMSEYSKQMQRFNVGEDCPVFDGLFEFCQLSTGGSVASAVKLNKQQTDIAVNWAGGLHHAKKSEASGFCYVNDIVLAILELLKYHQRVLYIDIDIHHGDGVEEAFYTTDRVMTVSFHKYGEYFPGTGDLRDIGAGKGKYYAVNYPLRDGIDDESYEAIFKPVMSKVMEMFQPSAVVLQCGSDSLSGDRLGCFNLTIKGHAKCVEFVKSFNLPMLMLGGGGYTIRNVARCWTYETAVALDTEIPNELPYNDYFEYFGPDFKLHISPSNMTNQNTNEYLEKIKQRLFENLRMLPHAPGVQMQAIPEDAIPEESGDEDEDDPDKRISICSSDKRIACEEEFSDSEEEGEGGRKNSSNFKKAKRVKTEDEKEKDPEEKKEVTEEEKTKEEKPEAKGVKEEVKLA

For orientation: IC50 means the concentration at which inhibition is half-maximal. For the compound `CCOc1ccc(-c2nc(C(=O)NCc3ccc(C(=O)NO)cc3)c3[nH]c(=O)n(-c4cccnc4OC)c3n2)cn1`, the IC50 in assay [1] was 1.2 µM; in [5], 0.0051 µM; in assay [6] it was 0.0499 µM. Besides, the “fold change (FC)” value is 1.77 in assay [2]; 1.7 in assay [3]; 1.95 in [4]; 0.84 in assay [7]; 0.85 in assay [8]; 1.7 in assay [9]. Further, the figures for the “fold change (FC)” value in assay [10], in assay [11] and in assay [12] were 1.16, 0.99 and 0.53, respectively.
